According to paper PMC3977315 (2010):

How the values were obtained:
[1] = system: poly(dA)•2poly(dT) (DNA, polymer) A/T; assay: calorimetric/spectroscopic thermodynamic profile; conditions: K+ 150 mM; 10 mM sodium cacodylate, 0.5 mM EDTA, pH 5.5, 20 °C
[2] = system: poly(dA)•2poly(dT) (DNA, polymer) A/T; assay: UV melting; conditions: K+ 150 mM, 10 mM sodium cacodylate, pH 6.8, rdb 1.67
[3] = system: poly(dA)•poly(dT) (DNA, polymer) A/T; assay: fluorescent intercalator displacement; conditions: K+ 150 mM; Na+ 10 mM; thiazole orange not displaced; highest concentration 10 mM
[4] = system: poly(dA)•2poly(dT) (DNA, polymer) A/T; assay: fluorescent intercalator displacement; conditions: thiazole orange displaced

NC[C@@H]1O[C@H](O[C@H]2[C@@H](O)[C@H](O[C@@H]3[C@@H](O)[C@H](N)C[C@H](N)[C@H]3O[C@H]3O[C@H](CN)[C@@H](O)[C@H](O)[C@H]3N)O[C@@H]2CO)[C@H](N)[C@@H](O)[C@@H]1O
KT(20°C) [1]: (2.4±0.1)×10^5 M^−1 | ΔTm3→2 ([2]; 25 μM neomycin, per base): ~ 25 °C | AC50 [3]: > 10 mM

NC[C@H]1O[C@H](O[C@H]2[C@H](O)[C@@H](O)[C@H](N)C[C@@H]2N)[C@H](N)[C@@H](O)[C@@H]1O
binding [2]: weak

NC[C@H]1O[C@H](O[C@H]2[C@H](O[C@@H]3O[C@H](CO)[C@@H](O)[C@H]3O)[C@@H](O)[C@H](N)C[C@@H]2N)[C@H](N)[C@@H](O)[C@@H]1O
binding [4]: weak
